Data: patent US6737383B1, “Herbicidal oxadiazolidines” (priority 1999, dated 2004)

Assays:
rice = assay: Test B flood test rice; type: in vivo, Oryza sativa
Outline: (§1)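 Flood test on plants grown to the 2-leaf stage; treated plants kept in greenhouse twelve to sixteen days, then visually rated against controls on a 0 (no effect) to 10 (complete control) scale.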

surinam grass = assay: Test B pre/postemergence surinam grass; type: in vivo, Brachiaria decumbens
Outline: (§2)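 Response is a visual 0-to-10 score relative to untreated plants, where 0 means no effect and 10 means complete control, taken twelve to sixteen days after application. Treatments went onto soil at planting and onto foliage of 1- to 4-leaf plants, using a surfactant-containing non-phytotoxic solvent.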

giant foxtail = assay: Test B pre/postemergence giant foxtail; type: in vivo, Setaria faberii
Outline: as §2

morningglory = assay: Test B pre/postemergence morningglory; type: in vivo, Ipomoea hederacea
Outline: as §2

bedstraw = assay: Test B pre/postemergence bedstraw; type: in vivo, Galium aparine
Outline: as §2

purple nutsedge = assay: Test B pre/postemergence purple nutsedge; type: in vivo, Cyperus rotundus; conditions: Postemergence
Outline: as §2

crabgrass = assay: Test B pre/postemergence crabgrass; type: in vivo, Digitaria sanguinalis
Outline: as §2

soybean = assay: Test B pre/postemergence soybean; type: in vivo, Glycine max
Outline: as §2

wheat = assay: Test B pre/postemergence wheat; type: in vivo, Triticum aestivum
Outline: as §2

smallflower flatsedge = assay: Test B flood test smallflower flatsedge; type: in vivo, Cyperus difformis
Outline: as §1

rape = assay: Test B pre/postemergence rape; type: in vivo, Brassica napus
Outline: as §2

velvetleaf = assay: Test B pre/postemergence velvetleaf; type: in vivo, Abutilon theophrasti
Outline: as §2

corn = assay: Test B pre/postemergence corn; type: in vivo, Zea mays
Outline: as §2

wild oat = assay: Test B pre/postemergence wild oat; type: in vivo, Avena fatua
Outline: as §2

blackgrass = assay: Test B pre/postemergence blackgrass; type: in vivo, Alopecurus myosuroides
Outline: as §2

duck salad = assay: Test B flood test duck salad; type: in vivo, Heteranthera limosa
Outline: as §1

[1] = Rate 62 g/ha, headed Pre-emergence (flood test species), scale 0 to 10 (0 no effect, 10 complete control)
[2] = Rate 125 g/ha, Pre-emergence, flood test species, scale 0 to 10 where 0 is no effect and 10 is complete control
[3] = Rate 250 g/ha, Pre-emergence, flood-test species, scale 0 to 10, 0 is no effect, 10 is complete control
[4] = Rate 500 g/ha, Pre-emergence, flood test species, scale 0 to 10 (0 no effect, 10 complete control)
[5] = Preemergence, Rate 62 g/ha, scale of 0 to 10 where 0 is no effect and 10 is complete control
[6] = Preemergence, Rate 250 g/ha, scale of 0 to 10 where 0 is no effect and 10 is complete control
[7] = Preemergence, Rate 500 g/ha, scale of 0 to 10 where 0 is no effect and 10 is complete control
[8] = Rate 62 g/ha, Postemergence, scale of 0 to 10 where 0 is no effect and 10 is complete control
[9] = Rate 125 g/ha, Preemergence, scale of 0 to 10 where 0 is no effect and 10 is complete control
[10] = Rate 500 g/ha, Postemergence, scale 0 to 10, 0 no effect, 10 complete control
[11] = Rate 125 g/ha, Postemergence, scale 0 to 10

`[2H]C([2H])([2H])n1c(=O)on(C(=O)N(c2ccc(F)cc2)C(C)C)c1=O` [Compound 245] was tested. Which “Rice plant response rating” value (rice; [1]) did it give?
Its value is 0.

What about the “Rice plant response rating” value (rice; [2]) of the same molecule?
Its value is 0.

And the “Rice plant response rating” value (rice; [3])?
The value was 0.

And the “Rice plant response rating” value (rice; [4])?
Its value is 0.

And the “B. signalgrass plant response rating” value (surinam grass; [5])?
The value was 3.

And the “B. signalgrass plant response rating” value (surinam grass; [6])?
The value was 8.

And the “Plant response rating, B. signalgrass” value (surinam grass; [7])?
Its value is 10.

And the “B. signalgrass plant response rating” value (surinam grass; [8])?
Its value is 1.

And the “B. signalgrass plant response rating” value (surinam grass; Rate 125 g/ha, Postemergence, scale 0 (no effect) to 10 (complete control))?
The value was 4.

What about the “B. signalgrass plant response rating” value (surinam grass; [9]) of the same molecule?
Its value is 7.

What about the “Plant response rating (0 to 10; 0 is no effect, 10 is complete control), B. signalgrass” value (surinam grass; Rate 250 g/ha, Postemergence) of the same molecule?
Its value is 6.

What about the “B. signalgrass plant response rating” value (surinam grass; [10]) of the same molecule?
Its value is 8.

What about the “Giant foxtail plant response rating” value (giant foxtail; [5]) of the same molecule?
Its value is 9.

And the “Giant foxtail plant response rating” value (giant foxtail; [6])?
Its value is 10.

What about the “Plant response rating, Giant foxtail” value (giant foxtail; [7]) of the same molecule?
The value was 10.

And the “Giant foxtail plant response rating” value (giant foxtail; [8])?
The value was 5.

What about the “Giant foxtail plant response rating” value (giant foxtail; [9]) of the same molecule?
The value was 9.

And the “Plant response rating (0 to 10; 0 is no effect, 10 is complete control), Giant foxtail” value (giant foxtail; Rate 250 g/ha, Postemergence)?
The value was 8.

And the “Giant foxtail plant response rating” value (giant foxtail; [10])?
The value was 8.

And the “Morningglory plant response rating” value (morningglory; [5])?
The value was 0.

What about the “Morningglory plant response rating” value (morningglory; [6]) of the same molecule?
The value was 6.

And the “Plant response rating, Morningglory” value (morningglory; [7])?
The value was 6.

And the “Morningglory plant response rating” value (morningglory; [8])?
Its value is 5.

And the “Morningglory plant response rating” value (morningglory; [9])?
Its value is 1.

And the “Plant response rating (0 to 10; 0 is no effect, 10 is complete control), Morningglory” value (morningglory; Rate 250 g/ha, Postemergence)?
The value was 9.

What about the “Morningglory plant response rating” value (morningglory; [10]) of the same molecule?
The value was 9.

What about the “Bedstraw plant response rating” value (bedstraw; [5]) of the same molecule?
The value was 0.

And the “Bedstraw plant response rating” value (bedstraw; [6])?
Its value is 9.

What about the “Plant response rating, Bedstraw” value (bedstraw; [7]) of the same molecule?
Its value is 10.

What about the “Bedstraw plant response rating” value (bedstraw; [8]) of the same molecule?
Its value is 3.

What about the “Bedstraw plant response rating” value (bedstraw; [11]) of the same molecule?
Its value is 9.

What about the “Bedstraw plant response rating” value (bedstraw; [9]) of the same molecule?
Its value is 2.

What about the “Plant response rating (0 to 10; 0 is no effect, 10 is complete control), Bedstraw” value (bedstraw; Rate 250 g/ha, Postemergence) of the same molecule?
The value was 9.

And the “Bedstraw plant response rating” value (bedstraw; [10])?
The value was 9.

And the “Nutsedge plant response rating” value (purple nutsedge; Rate 62 g/ha, scale of 0 to 10 where 0 is no effect and 10 is complete control)?
Its value is 0.

What about the “Plant response rating (0 to 10; 0 is no effect, 10 is complete control), Nutsedge” value (purple nutsedge; Rate 250 g/ha) of the same molecule?
The value was 0.

What about the “Nutsedge plant response rating” value (purple nutsedge; Rate 500 g/ha, scale 0 to 10, 0 no effect, 10 complete control) of the same molecule?
Its value is 0.

What about the “Crabgrass plant response rating” value (crabgrass; [5]) of the same molecule?
The value was 9.

What about the “Crabgrass plant response rating” value (crabgrass; [6]) of the same molecule?
Its value is 9.

And the “Plant response rating, Crabgrass” value (crabgrass; [7])?
The value was 10.

What about the “Crabgrass plant response rating” value (crabgrass; [8]) of the same molecule?
Its value is 2.

And the “Crabgrass plant response rating” value (crabgrass; [9])?
Its value is 9.

And the “Plant response rating (0 to 10; 0 is no effect, 10 is complete control), Crabgrass” value (crabgrass; Rate 250 g/ha, Postemergence)?
Its value is 8.

What about the “Crabgrass plant response rating” value (crabgrass; [10]) of the same molecule?
The value was 8.

What about the “Soybean plant response rating” value (soybean; [5]) of the same molecule?
Its value is 0.

What about the “Soybean plant response rating” value (soybean; [6]) of the same molecule?
The value was 2.

What about the “Plant response rating, Soybean” value (soybean; [7]) of the same molecule?
Its value is 8.

What about the “Soybean plant response rating” value (soybean; [8]) of the same molecule?
The value was 2.

What about the “Soybean plant response rating” value (soybean; [9]) of the same molecule?
The value was 2.

And the “Soybean plant response rating” value (soybean; [10])?
The value was 5.

What about the “Wheat plant response rating” value (wheat; [5]) of the same molecule?
The value was 6.

And the “Wheat plant response rating” value (wheat; [6])?
The value was 7.

What about the “Plant response rating, Wheat” value (wheat; [7]) of the same molecule?
Its value is 9.

And the “Wheat plant response rating” value (wheat; [8])?
Its value is 4.

And the “Wheat plant response rating” value (wheat; [9])?
Its value is 6.

What about the “Wheat plant response rating” value (wheat; [10]) of the same molecule?
Its value is 8.

And the “S. Flatsedge plant response rating” value (smallflower flatsedge; [1])?
The value was 0.

And the “S. Flatsedge plant response rating” value (smallflower flatsedge; [2])?
Its value is 0.

And the “S. Flatsedge plant response rating” value (smallflower flatsedge; [3])?
Its value is 0.

What about the “S. Flatsedge plant response rating” value (smallflower flatsedge; [4]) of the same molecule?
Its value is 0.

And the “Rape plant response rating” value (rape; [5])?
Its value is 3.

What about the “Rape plant response rating” value (rape; [6]) of the same molecule?
The value was 10.

And the “Plant response rating, Rape” value (rape; [7])?
Its value is 10.

What about the “Rape plant response rating” value (rape; [8]) of the same molecule?
The value was 0.

And the “Rape plant response rating” value (rape; [9])?
Its value is 4.

And the “Plant response rating (0 to 10; 0 is no effect, 10 is complete control), Rape” value (rape; Rate 250 g/ha, Postemergence)?
The value was 2.

And the “Rape plant response rating” value (rape; [10])?
The value was 5.

What about the “Velvetleaf plant response rating” value (velvetleaf; [5]) of the same molecule?
The value was 7.

And the “Velvetleaf plant response rating” value (velvetleaf; [6])?
The value was 10.

And the “Plant response rating, Velvetleaf” value (velvetleaf; [7])?
Its value is 10.

And the “Velvetleaf plant response rating” value (velvetleaf; [8])?
Its value is 3.

What about the “Velvetleaf plant response rating” value (velvetleaf; [9]) of the same molecule?
Its value is 7.

What about the “Velvetleaf plant response rating” value (velvetleaf; [10]) of the same molecule?
The value was 7.

And the “Corn plant response rating” value (corn; [5])?
Its value is 3.

And the “Corn plant response rating” value (corn; [6])?
Its value is 7.

What about the “Plant response rating, Corn” value (corn; [7]) of the same molecule?
The value was 8.

And the “Corn plant response rating” value (corn; [8])?
The value was 0.

What about the “Corn plant response rating” value (corn; [11]) of the same molecule?
Its value is 4.

And the “Corn plant response rating” value (corn; [9])?
Its value is 5.

And the “Plant response rating (0 to 10; 0 is no effect, 10 is complete control), Corn” value (corn; Rate 250 g/ha, Postemergence)?
Its value is 5.

What about the “Corn plant response rating” value (corn; [10]) of the same molecule?
The value was 7.

What about the “Wild oats plant response rating” value (wild oat; [5]) of the same molecule?
The value was 3.

What about the “Wild oats plant response rating” value (wild oat; [6]) of the same molecule?
Its value is 10.

What about the “Plant response rating, Wild oats” value (wild oat; [7]) of the same molecule?
Its value is 10.

What about the “Wild oats plant response rating” value (wild oat; [8]) of the same molecule?
Its value is 0.

And the “Wild oats plant response rating” value (wild oat; [9])?
Its value is 5.

And the “Wild oats plant response rating” value (wild oat; [10])?
Its value is 8.

And the “Blackgrass plant response rating” value (blackgrass; [5])?
The value was 10.

And the “Blackgrass plant response rating” value (blackgrass; [6])?
The value was 10.

And the “Plant response rating, Blackgrass” value (blackgrass; [7])?
The value was 10.

What about the “Blackgrass plant response rating” value (blackgrass; [8]) of the same molecule?
Its value is 4.

What about the “Blackgrass plant response rating” value (blackgrass; [11]) of the same molecule?
Its value is 7.

What about the “Blackgrass plant response rating” value (blackgrass; [9]) of the same molecule?
Its value is 10.

And the “Plant response rating (0 to 10; 0 is no effect, 10 is complete control), Blackgrass” value (blackgrass; Rate 250 g/ha, Postemergence)?
Its value is 7.

What about the “Blackgrass plant response rating” value (blackgrass; [10]) of the same molecule?
Its value is 8.

And the “Ducksalad plant response rating” value (duck salad; [1])?
Its value is 0.

And the “Ducksalad plant response rating” value (duck salad; [2])?
The value was 0.

What about the “Ducksalad plant response rating” value (duck salad; [3]) of the same molecule?
The value was 0.

What about the “Ducksalad plant response rating” value (duck salad; [4]) of the same molecule?
Its value is 0.
